Assay: SOD-like activity (superoxide scavenging activity) by ESR spin trap method, hypoxanthine-xanthine oxidase system with DMPO
Assay type: biochemical
Settings: for SOD-like activity after emulsification: after emulsification (Tween-80 or other emulsifier), figures in parentheses; for SOD-like activity (superoxide scavenging activity): not emulsified, extracted with untreated 0.1 M phosphate buffer
Excerpt: This superoxide scavenging activity will be described in further detail below. Superoxides (O2') are a type of active oxygen that are produced by neutrophils and macrophages and protect the body from impurities, but also are the cause of pulmonary emphysema, cataracts, arteriosclerosis, psoriasis, and the like. These superoxides are, therefore, a double-edged sword. The enzyme activity of superoxide dismutase (SOD) and superoxide scavenging activity (SOSA or SOD-like activity) are examples of the ability of food products to eliminate O2'. The former is an enzyme and is therefore broken down by digestive enzymes and goes virtually unabsorbed in vivo when taken orally. Consequently, the latter is promising for food products. […] ESR is a method for measuring SOD-like activity and assessing the ability of […] to scavenge O2'. […] This method is also called the spin trap method. In accordance with preparation by this spin trap method, only the water-soluble components are extracted in order to extract the component with SOD-like activity contained in a sample with 0.1 M phosphate buffer. […] Consequently, measuring superoxide […] activity with the isoflavone pre-emulsified in a small amount of oil or fat was contemplated.

## O=c1c(-c2ccc(O)cc2)coc2cc(O)ccc12 [Daidzein, daidzein]
  SOD-like activity after emulsification: (300 or units/g
  SOD-like activity (superoxide scavenging activity): 300 or less units/g

## O=c1c(-c2ccc(O)cc2)coc2cc(O)cc(O)c12 [Genistein, genistein]
  SOD-like activity after emulsification: (300 or units/g
  SOD-like activity (superoxide scavenging activity): 300 or less units/g

From US20060052440A1, “Medicinal composition for treating sudden deafness” (Nichimo Co., Ltd., priority 2002, published 2006)
